The text below walks through data of patent publication US20230183218A1, “CONDENSED SUBSTITUTED HYDROPYRROLES AS ANTAGONISTS OF THE MUSCARINIC ACETYLCHOLINE RECEPTOR M4” (Vanderbilt University, priority 2020, published 2023).

In one assay the target is T1, Human M4 (Homo sapiens, UniProt P08173).
T1 construct: expressed in transfected cells; host or cells: CHO-K1 (ATCC), stably co-expressing chimeric G protein Gqi5
T1 sequence (P08173 1-479): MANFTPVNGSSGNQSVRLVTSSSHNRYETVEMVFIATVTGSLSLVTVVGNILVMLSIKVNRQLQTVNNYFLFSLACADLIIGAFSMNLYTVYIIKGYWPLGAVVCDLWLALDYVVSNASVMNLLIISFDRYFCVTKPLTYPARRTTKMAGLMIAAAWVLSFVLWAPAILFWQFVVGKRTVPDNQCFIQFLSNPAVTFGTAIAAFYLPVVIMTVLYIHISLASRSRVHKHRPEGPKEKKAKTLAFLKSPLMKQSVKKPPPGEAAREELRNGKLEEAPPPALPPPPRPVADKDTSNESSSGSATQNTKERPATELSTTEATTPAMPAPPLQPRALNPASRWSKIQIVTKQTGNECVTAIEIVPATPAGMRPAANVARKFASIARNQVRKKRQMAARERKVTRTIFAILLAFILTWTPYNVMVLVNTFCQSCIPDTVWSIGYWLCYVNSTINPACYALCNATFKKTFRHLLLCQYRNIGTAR
As to the kind of experiment: mAChR M4 cell-based functional assay (calcium flux, antagonist mode vs EC80 acetylcholine), human M4/Gqi5/CHO-K1 cells. The note with it: for remaining activity at 30 µM: CHO-K1, % ACh maximum at 30 μM, human M4, read-out: Human M4 Emin (%); for IC50: decrease of response elicited by EC80 acetylcholine, human M4/Gqi5 CHO-K1 cells. Summed up: (§1)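 CHO-K1 cells stably expressing human or rat M4 with Gqi5, Fluo-4 loaded; calcium measured by fluorescence ratio on FDSS. Compound added, then EC20 acetylcholine at 143 s and EC80 at 268 s; IC50 from decrease of EC80 response, four-parameter logistic fit.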

The next assay deals with T2, Rat M4 (Rattus norvegicus, UniProt P08485).
T2 construct: expressed in transfected cells; host or cells: CHO-K1 (ATCC), stably co-expressing chimeric G protein Gqi5
T2 sequence (P08485 1-478): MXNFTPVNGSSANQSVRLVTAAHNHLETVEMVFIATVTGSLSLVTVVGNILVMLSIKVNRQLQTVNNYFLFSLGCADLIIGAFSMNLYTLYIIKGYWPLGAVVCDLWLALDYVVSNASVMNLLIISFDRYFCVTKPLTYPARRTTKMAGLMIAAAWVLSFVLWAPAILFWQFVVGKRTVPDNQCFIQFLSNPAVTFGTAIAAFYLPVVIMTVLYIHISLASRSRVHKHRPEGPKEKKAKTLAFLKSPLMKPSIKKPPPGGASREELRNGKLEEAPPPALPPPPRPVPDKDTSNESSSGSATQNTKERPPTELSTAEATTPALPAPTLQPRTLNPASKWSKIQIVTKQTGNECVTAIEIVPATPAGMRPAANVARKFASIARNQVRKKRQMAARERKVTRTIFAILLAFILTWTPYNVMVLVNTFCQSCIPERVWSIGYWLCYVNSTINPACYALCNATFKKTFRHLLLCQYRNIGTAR
As to the kind of experiment: mAChR M4 cell-based functional assay (calcium flux, antagonist mode vs EC80 acetylcholine), rat M4/Gqi5/CHO-K1 cells. As to conditions: for remaining activity at 30 µM: CHO-K1, % ACh maximum at 30 μM, rat M4, read-out: Rat M4 Emin (%); for IC50: decrease of response elicited by EC80 acetylcholine, rat M4/Gqi5 CHO-K1 cells. A digest of the protocol: as §1

The subject of assay [1] is haloperidol-induced catalepsy. The note with it: cited from earlier work.
The test system of the next assay is locomotor activity. The note with it: M4 knockout mice, but not the other four mAChR subtypes (M1-3,5); cited from earlier work.

Where two headings read alike, the source gives them in different places.

Usually IC50 stands for the concentration that gives 50% inhibition.

As for `C=CCN1C(=O)C(C)(C)c2cc(N[C@H]3C[C@@H]4CN(CCC(C)(C)C)C[C@@H]4C3)nnc21` [compound 71, 7-allyl-3-(((3aR,5s,6aS)-2-(3,3-dimethylbutyl)octahydrocyclopenta[c]pyrrol-5-yl)amino)-5,5-dimethyl-5,7-dihydro-6H-pyrrolo[2,3-c]pyridazin-6-one], on Human M4, the remaining activity at 30 µM is 3% and the IC50 stood at 0.0124 µM. Also, at Rat M4, the remaining activity at 30 µM was 5% and the IC50 stood at 0.369 µM.

As to `CCCN1C(=O)C(C)(C)c2cc(N[C@H]3C[C@@H]4CN(CCC(C)(C)C)C[C@@H]4C3)nnc21` [compound 72, 3-(((3aR,5s,6aS)-2-(3,3-dimethylbutyl)octahydrocyclopenta[c]pyrrol-5-yl)amino)-5,5-dimethyl-7-propyl-5,7-dihydro-6H-pyrrolo[2,3-c]pyridazin-6-one], the remaining activity at 30 µM on Human M4 and on Rat M4 was 4% throughout. Besides, the IC50 came out at 0.0105 µM on Human M4 and 0.217 µM on Rat M4.

As for `CC(C)(O)CN1C[C@H]2C[C@H](Nc3ccc(-c4cc(F)ccc4Cl)nn3)C[C@H]2C1` [compound 73, 1-((3aR,5s,6aS)-5-((6-(2-Chloro-5-fluorophenyl)pyridazin-3-yl)amino)hexahydrocyclopenta[c]pyrrol-2(1H)-yl)-2-methylpropan-2-ol], on Human M4, the remaining activity at 30 µM was determined as 3% and the IC50 worked out at 0.0135 µM. On Rat M4, the remaining activity at 30 µM was 8% and the IC50 was 1.36 µM.

Take `Fc1ccc(Cl)c(-c2ccc(N[C@H]3C[C@@H]4CN(C5CCCC5)C[C@@H]4C3)nn2)c1` [compound 74, (3aR,5s,6aS)-N-(6-(2-chloro-5-fluorophenyl)pyridazin-3-yl)-2-cyclopentyloctahydrocyclopenta[c]pyrrol-5-amine]: the remaining activity at 30 µM at Human M4 turned out to be 2%; on Rat M4, 4%. For the same compound, the IC50 was determined as 0.0273 µM at Human M4 and 0.933 µM at Rat M4.

For `Fc1ccc(Cl)c(-c2ccc(N[C@H]3C[C@@H]4CN(C5CCCCCC5)C[C@@H]4C3)nn2)c1` [compound 75, (3aR,5s,6aS)-N-(6-(2-chloro-5-fluorophenyl)pyridazin-3-yl)-2-cycloheptyloctahydrocyclopenta[c]pyrrol-5-amine], at Human M4, the remaining activity at 30 µM is 2% and the IC50 came to 0.0032 µM. Moreover, on Rat M4, the remaining activity at 30 µM is 3% and the IC50 stood at 0.0418 µM.

Turning to `Fc1ccc(Cl)c(-c2ccc(N[C@H]3C[C@@H]4CN(C5Cc6ccccc6C5)C[C@@H]4C3)nn2)c1` [compound 76, (3aR,5s,6aS)-N-(6-(2-chloro-5-fluorophenyl)pyridazin-3-yl)-2-(2,3-dihydro-1H-inden-2-yl)octahydrocyclopenta[c]pyrrol-5-amine], the remaining activity at 30 µM came out at 3% on Human M4 and 4% on Rat M4. For the same compound, the figures for the IC50 on Human M4 and at Rat M4 were 0.189 µM and 0.35 µM, respectively.

Turning to `Fc1ccc(Cl)c(-c2ccc(N[C@H]3C[C@@H]4CN(C5CCC6(CCCCC6)CC5)C[C@@H]4C3)nn2)c1` [compound 77, (3aR,5s,6aS)-N-(6-(2-chloro-5-fluorophenyl)pyridazin-3-yl)-2-(spiro[5.5]undecan-3-yl)octahydrocyclopenta[c]pyrrol-5-amine], at Human M4, the remaining activity at 30 µM came out at 3% and the IC50 worked out at 0.0257 µM. In addition, on Rat M4, the remaining activity at 30 µM came to 7% and the IC50 amounted to 0.387 µM.

For the compound `Fc1ccc(Cl)c(-c2ccc(N[C@H]3C[C@@H]4CN(C5CCC6(CCOCC6)CC5)C[C@@H]4C3)nn2)c1` [compound 78, (3aR,5s,6aS)-N-(6-(2-chloro-5-fluorophenyl)pyridazin-3-yl)-2-(3-oxaspiro[5.5]undecan-9-yl)octahydrocyclopenta[c]pyrrol-5-amine], on Human M4, the remaining activity at 30 µM was 3% and the IC50 turned out to be 0.0023 µM. Also, on Rat M4, the remaining activity at 30 µM came out at 3% and the IC50 stood at 0.102 µM.

As for `O=S1(=O)CCC(N2C[C@H]3C[C@H](Nc4ccc(-c5cc(F)ccc5Cl)nn4)C[C@H]3C2)CC1` [compound 79, 4-((3aR,5s,6aS)-5-((6-(2-chloro-5-fluorophenyl)pyridazin-3-yl)amino)hexahydrocyclopenta[c]pyrrol-2(1H)-yl)tetrahydro-2H-thiopyran 1,1-dioxide], on Human M4, the remaining activity at 30 µM amounted to 8% and the IC50 came to 1.75 µM. On Rat M4, the remaining activity at 30 µM stood at 42% and the concentration for half-maximal inhibition (IC50) was more than 10 µM.

Regarding `CN1[C@@H]2C[C@@H](OC(=O)[C@H](CO)c3ccccc3)C[C@H]1[C@@H]1O[C@@H]12` [scopolamine], the “reversal of haloperidol-induced catalepsy” value in assay [1] (M4KO mice) is recorded as “ineffective in reducing catalepsy”; in assay [1] (WT mice) it was “completely reversed”. Further, the locomotor-activating effects entry in the assay on locomotor activity is on record as “dramatically reduced”.
